Measurements from publication PMC6271632, “Tryptophan as a Probe to Study the Anticancer Mechanism of Action and Specificity of α-Helical Anticancer Peptides” (Molecules, 2014).

Assays:
human red blood cells = type: cell-based; conditions: red cells of human, 1 h
Method: Peptide samples were serially diluted by PBS in 96-well plates (round bottom) to give a volume of 70 μL sample solution in each well. Human erythrocytes anticoagulated by EDTAK2 were collected by centrifugation (1000 rpm) for 5 min, and washed twice by PBS, then diluted to a concentration of 2% in PBS. 70 μL of 2% erythrocytes were added to each well to give a final concentration of 1% human erythrocytes in each well and plates were incubated at 37 °C for 1 h. The plates were then centrifuged for 10 min at 3,000 rpm and supernatant (90 μL) was transferred to a 96-well plate (flat bottom). The release of hemoglobin was determined by measuring the absorbance of the supernatant at 540 nm. The hemolytic activity was determined as the minimal peptide concentration that caused hemolysis (minimal hemolytic concentration, MHC). Erythrocytes in PBS and distilled water were used as control of 0% and 100% hemolysis, respectively.

[1] = RP-HPLC retention time (relative hydrophobicity); type: physicochemical; conditions: measure of relative hydrophobicity, Zorbax 300 SB-C8 150 × 4.6 mm, linear AB gradient 1% acetonitrile/min, 0.1% TFA, 1 mL/min
Method: The relative hydrophobicity of the peptides was determined by measuring their RP-HPLC retention times at 25 °C. The retention times of peptides are highly sensitive to the helicity of peptides upon the interaction between the peptide with the hydrophobic environment of the column matrix. From Table 2, the relative hydrophobicity of peptide analogs is in the order PCW < PMW < PNW. […] It is well known that the chromatography conditions characteristic of RP-HPLC (hydrophobic stationary phase, non-polar eluting solvent) induce helical structures in potentially helical peptides in a manner similar to that of the helix-inducing solvent trifloroethanol (TFE).
Peptide samples were analyzed on a Shimadzu LC-20A HPLC column. Runs were performed on a Zorbax 300 SB-C8 column (150 × 4.6 mm ID, 5 μm particle size, 300Å pore size) from Agilent Technologies, using a linear AB gradient (1% acetonitrile/min) and a flow rate of 1 mL/min, in which eluent A was 0.1% aqueous TFA in water and eluent B was 0.1% TFA in acetonitrile. Temperature profiling analyses during RP-HPLC were performed in 5 °C increments, from 5 °C to 80 °C, as described previously.

[2] = Circular dichroism spectroscopy (helicity); type: physicochemical; conditions: for [θ]222 Benign / [θ]222 SDS in Buffer / [θ]222 50%TFE: CD, 222 nm, 75 μM peptide; for [θ]222 Benign / [θ]222 SDS in Buffer / [θ]222 50%TFE / % Helix SDS in Buffer / % Helix 50%TFE: 25 °C; for [θ]222 Benign: KP buffer (100 mM KCl, 50 mM KH2PO4/K2HPO4, pH 7.4); for [θ]222 SDS in Buffer / % Helix SDS in Buffer: KP buffer with 10 mM SDS; for [θ]222 50%TFE / % Helix 50%TFE: KP buffer with 50% TFE; for % Helix Benign / % Helix SDS in Buffer / % Helix 50%TFE: relative to molar ellipticity of PMW in 50% TFE; for % Helix Benign: KP buffer pH 7.4, 25 °C
Method: Peptide secondary structure was measured by CD spectroscopy on a Jasco-810 spectropolarimeter under mild buffer conditions (50 mM KH2PO4/K2HPO4, and 100 mM KCl, pH 7), in 50% TFE and under mild buffer conditions with 10 mM SDS to mimic the hydrophobic environment of the cell membrane (Figure 1 and Table 2). All peptide analogs show negligible helical structures with molar ellipticity values ranging from −5900 to −7800 under mild conditions. In contrast, all peptide analogs were induced into highly helical structures with molar ellipticity values ranging from −24,300 to −31,700 in the hydrophobic environment of 50% TFE and molar ellipticity values ranging from −17,800 to −27,300 in the hydrophobic buffer environment in the presence of 10 mM SDS. […] It is obvious that the tryptophan residue played an important role in stabilizing the helical structure at the N-terminus or in the middle position of the peptide sequence.
Circular dichroism (CD) spectra were acquired with a 0.02 cm path length quartz cuvette on a Jasco J-810 spectropolarimeter (Jasco, Easton, MD, USA) at 25 °C as described previously. The concentration of 75 μM peptides was measured in benign buffer (50 mM KH2PO4/K2HPO4, and 100 mM KCl (pH 7.4)), benign buffer with 50% TFE and benign buffer with 10 mM SDS at 25 °C. The mean residue molar ellipticities were calculated by the equation [θ] = θ/10lCMn and θ is the ellipticity in millidegrees, l is the optical path length of the cuvette in centimeters, CM is the peptide concentration in mole/liter, and n is the number of residues in the peptide. The values of mean residue molar ellipticities of the peptide analogs at 222 nm were used to determine the relative helicity of the peptides.

[3] = RP-HPLC temperature profiling (peptide self-association); type: physicochemical; conditions: RP-HPLC temperature profiling 5 to 80 °C in 5 °C increments; maximal retention time difference normalised to control peptide C; Zorbax 300 SB-C8
Method: Figure 2 Peptide self-association ability during RP-HPLC temperature profiling. The retention behavior of the peptides was normalized to that of the random coil peptide C through the expression (tR^t − tR^5 for peptide analogs) minus (tR^t − tR^5 for control peptide C), where tR^t is the retention time at a specific temperature of the anticancer peptides or the random coil peptide, and tR^5 is the retention time at 5 °C.
We utilized the RP-HPLC temperature profiling technique to determine the peptide self-association ability in aqueous solution which we believe is a very important parameter to understand anticancer activity. When the self-association ability of a peptide is too strong in aqueous solution, it could decrease the ability of the peptide to dissociate and penetrate into membranes to kill target cells. […] The curves were normalized with the control peptide C which is a monomeric random coil peptide in both aqueous and hydrophobic media, showing only the general temperature effects. The peptide self-association parameter (PA) is the maximum change in peptide retention time relative to the control peptide C, to quantify the self-association ability of peptides in solution. The details of how to determine peptide self-association parameter were reported previously. […]
Peptide samples were analyzed on a Shimadzu LC-20A HPLC column. […]

[4] = Isothermal titration calorimetry with DMPC LUVs; type: binding; conditions: ITC, 25 °C
Method: The interaction of the peptides PNW and PCW with phospholipids was investigated using ITC at 25 °C, in which DMPC or DMPS LUVs were injected into an ITC cell containing peptide solutions of PNW or PCW. Based on the tryptophan fluorescence and quenching experiments, PNW and PCW could cover the trend of peptide-membrane interaction, thus, PMW was not included in the liposome experiments. The interaction of peptides with phospholipid bilayer membrane is entropy-driven. […] It is clear to see that the endothermic heat flow decreased with the increase of the number of injections and the free peptide concentration in the cell decreased simultaneously. The endothermic binding reaction of peptide PNW ceased after 20 injections, when all of peptide in bulk bound to DMPC LUVs (Figure 4A) and the further addition of DMPC LUVs caused dilution heat. However, the endothermic binding reaction of PCW ceased after 22 injections.
To mimic cancer cell and normal cell membranes, desired phospholipid powders were mixtured under certain ratios. Phospholipid mixtures were dissolved in chloroform, dried by N2 flow, and then vacuumed overnight to remove the trace of organic solvents. […] The phospholipid concentrations were determined by phosphorus analysis. […]

[5] = Isothermal titration calorimetry with DMPS LUVs; type: binding; conditions: ITC, 25 °C, 10 mM HEPES, 150 mM NaCl pH 7.0
Method: To mimic cancer cell and normal cell membranes, desired phospholipid powders were mixtured under certain ratios. Phospholipid mixtures were dissolved in chloroform, dried by N2 flow, and then vacuumed overnight to remove the trace of organic solvents. The lipids were hydrated in 10 mM HEPES and 150 mM NaCl buffer (pH 7.4) and extensively vortexed above the phase-transition temperature of phospholipid, obtaining multilamellar large vesicles (MLVs). To obtain large unilamellar vesicles (LUVs), the MLVs was exposed to five freeze-thaw cycles and pass 21 times through two polycarbonate membrane (0.1 μm) with a mini-extruder above the phase-transition temperature of phospholipids. The phospholipid concentrations were determined by phosphorus analysis.
The affinity of peptides with LUV liposomes were detected by a Nano ITC2G isothermal titration calorimeter (TA Instrument Corp., New Castle, DE, USA) at 25 °C, under HEPES buffer condition (10 mM HEPES, and 150 mM NaCl (pH 7.0)). To avoid air bubbles, peptides and LUV solutions were degassed under vacuum 500 mmHg, for 14 min before using. […]

HeLa cells = type: cell-based, Human; conditions: 1 h
Method: The MTT assay has been used to test cytotoxicity of reagents and cell viability. Human cervix carcinoma cells (HeLa cells) were seeded in 96-well plates and incubated with serially 2-fold diluted concentration of different peptides (μM) for 1 h at 37 °C. As a negative control, cells were cultured without addition of the peptides. Thereafter, 20 μL of 5 mg/mL MTT solution in PBS were added to cells and treated for 4 h at 37 °C. The formazan crystals were dissolved by adding 150 μL dimethyl sulfoxide (DMSO) just before spectrometric determination. The absorbance was determined at 490 nm. The results were expressed as IC50, representing the concentration at which cell ability was reduced by 50%. The cytotoxicity assays were repeated in triplicates.

| Structure (SMILES) | MHC (minimal hemolytic concentration) (human red blood cells) | tR (retention time at 25 °C by RP-HPLC) [1] | [θ]222 Benign [2] | [θ]222 SDS in Buffer [2] | [θ]222 50%TFE [2] | % Helix Benign [2] | % Helix SDS in Buffer [2] | % Helix 50%TFE [2] | PA (association parameter) [3] | affinity constant Ka to DMPC LUVs [4] | Ka (affinity constant) ([4]; 10 mM HEPES, 150 mM NaCl pH 7.0) | Ka (affinity constant) [5] | IC50 (HeLa cells) |
| --- | --- | --- | --- | --- | --- | --- | --- | --- | --- | --- | --- | --- | --- |
| CC[C@H](C)[C@H](NC(=O)[C@H](CCCCN)NC(C)=O)C(=O)N[C@@H](CCCCN)C(=O)N[C@@H](CO)C(=O)N[C@@H](Cc1ccccc1)C(=O)N[C@@H](CC(C)C)C(=O)N[C@@H](CCCCN)C(=O)N[C@H](C(=O)N[C@@H](Cc1ccccc1)C(=O)N[C@@H](CCCCN)C(=O)N[C@@H](CO)C(=O)N[C@@H](CC(C)C)C(=O)N[C@@H](CCCCN)C(=O)N[C@@H](CCCCN)C(=O)N[C@H](C(=O)N[C@H](C(=O)N[C@@H](CC(C)C)C(=O)N[C@@H](Cc1c[nH]cn1)C(=O)N[C@H](C(=O)N[C@@H](CC(C)C)C(=O)N[C@@H](CC(C)C)C(=O)N[C@@H](CCCCN)C(=O)N[C@@H](C)C(=O)N[C@@H](Cc1c[nH]c2ccccc12)C(=O)N[C@@H](CO)C(=O)N[C@@H](CO)C(N)=O)[C@@H](C)O)C(C)C)[C@@H](C)O)[C@@H](C)O [PCW] | 10.41 ± 0.01 µM | 45.6 min | −5900 degree cm^2 dmol^−1 | −17,800 degree cm^2 dmol^−1 | −24300 degree.cm^2.dmol^−1 | 18% | 56% | 76% | 4.5 min | 4150 M⁻¹ | 4.15 [M]^−1× 10^3 | 17.70 [M]^−1× 10^3 | 2330 ± 120 nM |
| CC[C@H](C)[C@H](NC(=O)[C@H](C)NC(=O)[C@H](CCCCN)NC(=O)[C@H](CC(C)C)NC(=O)[C@H](CC(C)C)NC(=O)[C@@H](NC(=O)[C@H](Cc1c[nH]cn1)NC(=O)[C@H](CC(C)C)NC(=O)[C@@H](NC(=O)[C@@H](NC(=O)[C@H](CCCCN)NC(=O)[C@H](CCCCN)NC(=O)[C@H](Cc1c[nH]c2ccccc12)NC(=O)[C@H](CO)NC(=O)[C@H](CCCCN)NC(=O)[C@H](Cc1ccccc1)NC(=O)[C@@H](NC(=O)[C@H](CCCCN)NC(=O)[C@H](CC(C)C)NC(=O)[C@H](Cc1ccccc1)NC(=O)[C@H](CO)NC(=O)[C@H](CCCCN)NC(=O)[C@@H](NC(=O)[C@H](CCCCN)NC(C)=O)[C@@H](C)CC)[C@@H](C)O)[C@@H](C)O)C(C)C)[C@@H](C)O)C(=O)N[C@@H](CO)C(=O)N[C@@H](CO)C(N)=O [PMW] | 10.41 ± 0.01 µM | 46.5 min | −7400 degree cm^2 dmol^−1 | −25,050 degree cm^2 dmol^−1 | −31900 degree.cm^2.dmol^−1 | 23% | 79% | 100% | 5.3 min |  |  |  | 2470 ± 180 nM |
